Experimental data from US10543159B2, “Hair papilla cell activator” (Ezaki Glico Co., Ltd., priority 2014, dated 2020).

Key:
FGF-7 = experiment: Expression rate of FGF-7 among acidic saccharide salts, quantitative PCR (Example 6); type: cell-based, human; conditions: Example 6: solutions (b)-(h) of b288 mixed 1:9 with DMEM, GAPDH reference, mean of 4 PCR assays, dihydrate
Protocol: (§1) (1) 500 μl of a special medium in which 2×10^4 cells/ml of follicle dermal papilla cells were suspended was dispensed into a type I collagen-coated 24-well cell culture plate (Corning), and cultured at a cell density of 5×10^3 cells/cm^2 at 37° C. for 72 hours. […] Oji Cornstarch Co., Ltd.), (f) a 2.5% (w/v) aqueous solution of a phosphorylated oligosaccharide magnesium salt (POs-Mg; […] (3) Each of the solutions (a) to (c) was mixed with DMEM high glucose (Sigma, USA) at a ratio of 1:9. (4) Following the procedures (4) to (6) in Example 2, mRNA was extracted from the cells, cDNA was prepared, and then the expression levels of the VEGF, FGF-7, and GAPDH genes were quantified by quantitative PCR. (7) Using GAPDH as a reference gene, a comparative analysis of expression levels was performed with the analysis software (Bio-Rad CFX Manager 3.0) included in CFX96Touch. The expression levels were calculated under the default conditions of the software.

fibronectin = experiment: Quantitative PCR gene expression in follicle dermal papilla cells: fibronectin; type: cell-based, human; conditions: Example 3: 0.25% POs-Ca (R) or CaCl2 of equivalent calcium, DMEM, 37° C., 5 hours; Dunnett, n=6
Protocol: (§2) (1) 500 μl of a special medium in which 4×10^4 cells/ml of follicle dermal papilla cells were suspended was dispensed into a type I collagen-coated 24-well cell culture plate (Corning), and cultured at a cell density of 1.0×10^4 cells/cm^2 at 37° C. for 42 hours. (2) (a) Water (control), (b) a 2.5% (w/v) aqueous solution of POs-Ca (R), and (c) a 0.457% aqueous solution of CaCl2 (having an equivalent amount of calcium to that of (b)) were prepared. Each of the solutions (a) to (c) was mixed with DMEM high glucose (Sigma, USA) at a ratio of 1:9. […]
(§3) (6) 0.5 μl of each of cDNA solutions diluted 2-fold with water, 1 μl of a solution containing 4 μM of each of primers 1 and 2 for each of the genes shown in Table 2, 5 μl of SYBR Premix Ex Taq II (Takara), and 3.5 μl of water were added, and quantitative PCR was performed on each of the genes. […] Fluorescence intensity after each cycle was measured.
(§4) (7) Using PGK1 and GAPDH as reference genes, a comparative analysis of expression levels was performed with the analysis software (Bio-Rad CFX Manager 3.0) included in CFX96Touch. Relative expression levels were calculated under the default conditions of the software.
(§5) (8) The average value of calculated expression levels was determined for the six samples derived from the cells treated under the respective conditions, and defined as the expression level relative to the control.

VEGF [1] = experiment: Quantitative PCR gene expression in follicle dermal papilla cells: VEGF; type: cell-based, human; conditions: Example 3: 0.25% POs-Ca (R) or CaCl2 of equivalent calcium, DMEM, 37° C., 5 hours; Dunnett, n=6
tenascin C = experiment: Quantitative PCR gene expression in follicle dermal papilla cells: tenascin C; type: cell-based, human; conditions: Example 3: 0.25% POs-Ca (R) or CaCl2 of equivalent calcium, DMEM, 37° C., 5 hours; Dunnett, n=6
Protocol: as §2, §3, §4, §5

ALPL = experiment: Quantitative PCR gene expression in follicle dermal papilla cells: ALPL; type: cell-based, human; conditions: Example 3: 0.25% POs-Ca (R) or CaCl2 of equivalent calcium, DMEM, 37° C., 5 hours; Dunnett, n=6
Protocol: as §2, §3, §4, §5

[2] = tested on: human follicle dermal papilla cells; experiment: Follicle dermal papilla cell proliferation, Cell Counting Kit-F cell count (Example 2); type: cell-based; conditions: concentration series of Table 1A, 3 days
Protocol: A strain (Lot. 3092504.12) sold by PromoCell (Germany) was used as human follicle dermal papilla cells. The cells were cultured in a CO2 incubator at 37° C., using a special medium for follicle dermal papilla cells (PromoCell), unless otherwise indicated. Cell subculturing was performed as follows: cells were seeded at 5000 to 10000 cells/cm^2 in an uncoated dish, and when the cells reached subconfluent, they were treated with trypsin-EDTA (0.03%) and detached, and then re-seeded. […] The medium was replaced about once every 3 days.
1. The procedures (1) and (3) to (5) in Example 1 were performed in the same manner as described above. Solutions of the compositions shown in the following table were prepared in a concentration series starting from a 10% (w/v) aqueous solution of POs-Ca (R), a 12.9% (w/v) aqueous solution of G1P-Ca, a 1.84% (w/v) aqueous solution of CaCl2.2H2O, or a 10% (w/v) aqueous solution of POs-Na.
2. In place of the conditions ((6), (7) and (8)) in Example 1, Cell Counting Kit-F (Dojindo Molecular Technologies, Inc.) was added to each well in accordance with the manual, and the number of cells was counted.

versican = experiment: Quantitative PCR gene expression in follicle dermal papilla cells: versican; type: cell-based, human; conditions: Example 3: 0.25% POs-Ca (R) or CaCl2 of equivalent calcium, DMEM, 37° C., 5 hours; Dunnett, n=6
Protocol: as §2, §3, §4, §5

VEGFB = experiment: Quantitative PCR gene expression in follicle dermal papilla cells: VEGFB; type: cell-based, human; conditions: Example 3: 0.25% POs-Ca (R) or CaCl2 of equivalent calcium, DMEM, 37° C., 5 hours; Dunnett, n=6
Protocol: as §2, §3, §4, §5

[3] = tested on: human follicle dermal papilla cells; experiment: Follicle dermal papilla cell proliferation, WST-1 (Example 1); type: cell-based
Protocol: A strain (Lot. 3092504.12) sold by PromoCell (Germany) was used as human follicle dermal papilla cells. The cells were cultured in a CO2 incubator at 37° C., using a special medium for follicle dermal papilla cells (PromoCell), unless otherwise indicated. Cell subculturing was performed as follows: cells were seeded at 5000 to 10000 cells/cm^2 in an uncoated dish, and when the cells reached subconfluent, they were treated with trypsin-EDTA (0.03%) and detached, and then re-seeded. The trypsin-EDTA treatment allows complete detachment of the cells by incubation at 37° C. for nearly 10 minutes, with a high survival rate. The medium was replaced about once every 3 days.
(1) Human follicle dermal papilla cells were seeded in a 96-well collagen I-coated plate (BD Biocoat Collagen I 96-well clear plate) at 1.6×10^3 cells/well and cultured at 37° C. for 24 hours. Cells were not seeded in two wells on the plate for blanks.
(2) Solutions of the compositions shown in the table were prepared in a concentration series starting from a 10% (w/v) aqueous solution of POs-Ca (R), a 1.84% (w/v) aqueous solution of CaCl2.2H2O, or a 12.9% (w/v) aqueous solution of G1P-Ca.
(3) The above-described aqueous solutions and the special medium were mixed at a ratio of 1:9 to prepare media having five different concentrations for each calcium species with a final concentration of 1/10 shown in Table 1. The media in each of the columns of Table 1 have the same calcium concentration. […]
(7) Absorbance at 440 nm was measured for each well, using a fluorescence microplate reader (Varioskan Flash 2.4; Thermo Fisher Scientific, US).
(8) The value obtained by subtracting the absorbance of the blank wells from the absorbance of the well of the sample was defined as the value of the relative amount of cells of the sample in each well. The degree of cell proliferation relative to the control was calculated by dividing the value of the relative amount of cells in each well, by the average value of the relative amount of cells in the control medium.

CSPG4 = experiment: Quantitative PCR gene expression in follicle dermal papilla cells: CSPG4; type: cell-based, human; conditions: Example 3: 0.25% POs-Ca (R) or CaCl2 of equivalent calcium, DMEM, 37° C., 5 hours; Dunnett, n=6
Protocol: as §2, §3, §4, §5

VEGF [4] = experiment: Expression rate of VEGF among acidic saccharide salts, quantitative PCR (Example 6); type: cell-based, human; conditions: Example 6: solutions (b)-(h) of b288 mixed 1:9 with DMEM, GAPDH reference, mean of 4 PCR assays, dihydrate
Protocol: as §1

SMILES: O.O.[Ca+2].[Cl-].[Cl-] [CaCl2, calcium chloride dihydrate]
- FGF7, relative values of the expression levels based on the control as 1 (FGF-7): 1.02
- FGF7, relative values of the expression levels based on the control as 1 (FGF-7; listed as calcium chloride): either comparable to or below the control
- expression of fibronectin gene compared to control (fibronectin): significantly decreased
- expression of VEGF gene compared to control (VEGF [1]): significant increases in the expression of genes were not observed
- expression of tenascin C gene compared to control (tenascin C): significant increases in the expression of genes were not observed
- expression of ALPL gene compared to control (ALPL): significant increases in the expression of genes were not observed
- number of cells compared to that without addition [2]: not observed
- expression of versican gene compared to control (versican): significantly decreased
- expression of VEGFB compared to control (VEGFB): significantly increased
- proliferation rate tendency at low concentrations ([3]; 0.0625% and 0.12% POs-Ca (R), 0.0115% and 0.023% calcium chloride): tended to decrease
- increase of cell proliferation relative to the control ([3]; 0.25% POs-Ca (R) or calcium chloride with equivalent calcium, 3 days, WST-1): 5.6%
- proliferation rate at high concentrations ([3]; 0.5% and 1.0% POs-Ca (R), 0.092% and 0.184% calcium chloride): tended to increase
- expression of CSPG4 gene compared to control (CSPG4): significant increases in the expression of genes were not observed
- VEGF, relative values of the expression levels based on the control as 1 (VEGF [4]): 0.80
- VEGF, relative values of the expression levels based on the control as 1 (VEGF [4]; listed as calcium chloride): either comparable to or below the control
